Reference: patent US20110028405A1, “SULFAMIDES AS ZAP-70 INHIBITORS” (priority 2007, published 2011)

Experiments:
ZAP-70 = biological target: T1, ZAP-70 (Homo sapiens, UniProt P43403); assay: ZAP-70 kinobeads assay; type: binding; conditions: cell lysate, dot blot detection
T1 construct: endogenous in cells; host or cells: cell lysate
T1 sequence (P43403 1-619): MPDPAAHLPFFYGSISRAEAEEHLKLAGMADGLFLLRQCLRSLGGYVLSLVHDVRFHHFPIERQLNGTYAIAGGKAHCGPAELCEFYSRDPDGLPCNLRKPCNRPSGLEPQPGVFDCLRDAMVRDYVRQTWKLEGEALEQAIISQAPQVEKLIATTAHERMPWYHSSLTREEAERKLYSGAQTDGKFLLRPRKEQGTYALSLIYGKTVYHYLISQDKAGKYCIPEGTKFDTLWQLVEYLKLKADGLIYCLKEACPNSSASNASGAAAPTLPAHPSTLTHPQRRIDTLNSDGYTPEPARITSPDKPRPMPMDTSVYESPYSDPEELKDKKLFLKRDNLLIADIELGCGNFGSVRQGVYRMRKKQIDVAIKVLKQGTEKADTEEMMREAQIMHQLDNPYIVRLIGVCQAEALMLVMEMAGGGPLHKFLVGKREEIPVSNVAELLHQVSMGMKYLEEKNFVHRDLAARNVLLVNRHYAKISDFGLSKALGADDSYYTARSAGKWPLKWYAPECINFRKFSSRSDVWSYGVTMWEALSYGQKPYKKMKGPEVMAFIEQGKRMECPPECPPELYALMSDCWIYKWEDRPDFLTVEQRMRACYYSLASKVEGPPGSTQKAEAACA
Method: The compounds of the present invention as described in the previous examples can be tested in the ZAP-70 kinobeads assay as described (EP-A 1862802 and WO-A 2007/137867). Briefly, test compounds (at various concentrations) and the affinity matrix with the immobilized aminopyrido-pyrimidine ligand 24 are added to cell lysate aliquots and allowed to bind to the proteins in the lysate sample. After the incubation time the beads with captured proteins are separated from the lysate. Bound proteins are then eluted and the presence ZAP-70 is detected and quantified using a specific antibody in a dot blot procedure and the Odyssey infrared detection system.

Jurkat cells = assay: Calcium release assay (Fluo-4, flow cytometry, anti-CD3 stimulation); type: cell-based; conditions: Homo sapiens; intracellular Ca2+ release in Jurkat cells after anti-CD3 activation
Method: Compounds of the present invention were tested in a Calcium release assay as described below.
The development of fluorescent probes makes it possible to measure the concentration of intracellular free Calcium ions in single living cells. Cells are first loaded with a cell-permeable Ca^2+-sensitive dye, then the test compound is added. Finally, cells are activated through the T cell receptor with an anti-CD3 antibody shortly before data acquisition on the flow cytometer. The release of Ca^2+ is measured as a function of time after cell stimulation. This protocol describes the flow cytometry method using the Fluo-3 and Fluo-4 dyes (Minta et al., 1989, J. Biol. Chem. 264(14):8171-8178) to measure the intracellular Ca^2+ concentration in Jurkat cells (see also June et al., 1997, Measurement of intracellular calcium ions by flow cytometry. In: Current Protocols in Cytometry (1997) Unit 9.8.1-9.8.19, John Wiley & Sons, Inc.).
1) Prepare a work plan indicating the number of samples to be analyzed including controls. 2) Cell harvest: Centrifuge 50 to 100 ml of a Jurkat cell culture for 5 minutes at 1100 rpm. Discard the supernatant, pool the resuspended cell pellets in a single 50 ml Falcon tube, and fill up to 50 ml with PBS-CaCl2 (without FCS). Centrifuge again sample again. 3) Resuspend cell pellet with PBS-CaCl2 (without FCS) to achieve a concentration not lower than 10×10^6 cells/ml. Prepare an adequate dilution to evaluate the cell concentration and count the cells. 4) Separate the volume of cells needed to be loaded (for example […] for 20 samples) in a 50 ml Falcon tube. Fill up with PBS-CaCl2 to 900 μl for 107 cells. 5) Prepare in the dark a 1:1 mix of FLUO-4 (1 mM)+Pluronic F-127 (20%). 5 μl of Fluo-4 are needed per 107 cells. 6) Prepare a 1/10 dilution of this mix with PBS-CaCl2 (in the dark; for example 5 μl Fluo-4+5 μl F-127 completed to 100 μl). 7) Add the dye solution to the cells. […] 8) Incubate the sample for 30 minutes in a cell incubator (37° C., 5% CO2). Mix from time to time. 9) During this time prepare the adequate test compound dilution in PBS-CaCl2 (with 10% FCS). The solution should be 10 times more concentrated than the desired final concentration. Vortex each dilution. Prepare also the antibody dilutions: anti-CD3 (1/200) and GAM (1/25). 10) Label FACS tubes and distribute in the corresponding tube 30 μl of the compound dilution or only buffer for the control tubes. 11) After 30 minutes of incubation wash the cells twice in PBS-CaCl2 (with 10% FCS). During the washing steps make sure that the flow cytometer is already “ON” in order to warm the laser. 12) Resuspend the cell pellet in PBS-CaCl2 (with 10% FCS) at a concentration of 1.5×10^6 cells/ml. 13) Distribute 300 μl of cell suspension into the FACS tubes and mix gently. The compound incubation is starting. Keep samples at room temperature in the dark. 14) Open the settings of the cytometer. It is advised to have a template ready which is used for all measurements. Settings of the machine should also be the same from one experiment to the other which permits to evaluate the reproducibility of the cell preparation. 15) In Setup modus control your cell preparation on the cytometer. Cells should fit in the pre-defined gates. 16) During the compound incubation time, check also that cells are responding to the anti-CD3 activation as expected. Set a timer at 8 sec. Add 6 μl of anti-CD3 dilution (0.2 μg/ml final) and mix gently. Add 1 μl of GAM dilution (0.75 μg/ml final) and mix gently. Incubate the samples in water bath at 37° C. while starting timer. After 8 seconds of incubation, acquire data at medium speed for 200 seconds. A clear increase of fluorescence should appear after 1 minute. 17) Make sure that the cells rest and equilibrate at room temperature 15 minutes before FACS data acquisition 18) Data acquisition: Samples to be compared should be measured consecutively. 19) For a better reproducibility, make sure that data for the loaded cells are acquired within 2 hours. […]

| SMILES | IC50 (ZAP-70) [nM] | IC50 (Jurkat cells) [nM] |
| --- | --- | --- |
| COc1cc(Nc2ncc(F)c(Nc3ccc(C)cc3NS(N)(=O)=O)n2)cc(OC)c1OC [Example 34, N-(2-(5-Fluoro-2-(3,4,5-trimethoxyphenylamino)pyrimidin-4-ylamino)-5-methylphenyl)sulfamide] | < 1000 | < 1000 |
| COc1cc(Nc2ncc(F)c(Nc3ccc(N4CCOCC4)cc3NS(N)(=O)=O)n2)cc(OC)c1OC [Example 35, N-(2-(5-Fluoro-2-(3,4,5-trimethoxyphenylamino)pyrimidin-4-ylamino)-5-morpholinophenyl)sulfamide] | < 1000 | < 1000 |
| COc1ccc(NS(N)(=O)=O)c(Nc2nc(Nc3cc(OC)c(OC)c(OC)c3)ncc2F)c1 [Example 36, N-(2-(5-fluoro-2-(3,4,5-trimethoxyphenylamino)pyrimidin-4-ylamino)-4-methoxyphenyl)sulfamide] | < 50000 | < 1000 |
| COc1cc(Nc2ncc(F)c(Nc3cc(F)ccc3NS(N)(=O)=O)n2)cc(OC)c1OC [Example 37, N-(4-fluoro-2-(5-fluoro-2-(3,4,5-trimethoxyphenylamino)pyrimidin-4-ylamino)phenyl)sulfamide] | < 1000 | < 1000 |

Now from value to compound:

| IC50 (ZAP-70) [nM] | IC50 (Jurkat cells) [nM] | SMILES |
| --- | --- | --- |
| < 1000 | < 1000 | COc1cc(Nc2ncc(F)c(Nc3ccc(C)c(C)c3NS(N)(=O)=O)n2)cc(OC)c1OC [Example 31, N-(6-(5-fluoro-2-(3,4,5-trimethoxyphenylamino)pyrimidin-4-ylamino)-2,3-dimethylphenyl)sulfamide] |
| < 100 | < 100 | COc1cccc(Nc2nc(Nc3cc(OC)c(OC)c(OC)c3)ncc2F)c1NS(N)(=O)=O [Example 32, N-(2-(5-fluoro-2-(3,4,5-trimethoxyphenylamino)pyrimidin-4-ylamino)-6-methoxyphenyl)sulfamide] |
| < 100 | < 1000 | CCOc1cccc(Nc2nc(Nc3cc(OC)c(OC)c(OC)c3)ncc2F)c1NS(N)(=O)=O [Example 33, N-(2-ethoxy-6-(5-fluoro-2-(3,4,5-trimethoxyphenylamino)pyrimidin-4-ylamino)phenyl)sulfamide] |
